Experimental findings from US8686146B2, “Azaindenoisoquinoline topoisomerase I inhibitors” (Purdue Research Foundation, priority 2012, dated 2014) are described below.

The target in one data set is T1, human recombinant Top1 (Homo sapiens, UniProt P11387).
T1 construct: made in house
T1 sequence (P11387 1-765): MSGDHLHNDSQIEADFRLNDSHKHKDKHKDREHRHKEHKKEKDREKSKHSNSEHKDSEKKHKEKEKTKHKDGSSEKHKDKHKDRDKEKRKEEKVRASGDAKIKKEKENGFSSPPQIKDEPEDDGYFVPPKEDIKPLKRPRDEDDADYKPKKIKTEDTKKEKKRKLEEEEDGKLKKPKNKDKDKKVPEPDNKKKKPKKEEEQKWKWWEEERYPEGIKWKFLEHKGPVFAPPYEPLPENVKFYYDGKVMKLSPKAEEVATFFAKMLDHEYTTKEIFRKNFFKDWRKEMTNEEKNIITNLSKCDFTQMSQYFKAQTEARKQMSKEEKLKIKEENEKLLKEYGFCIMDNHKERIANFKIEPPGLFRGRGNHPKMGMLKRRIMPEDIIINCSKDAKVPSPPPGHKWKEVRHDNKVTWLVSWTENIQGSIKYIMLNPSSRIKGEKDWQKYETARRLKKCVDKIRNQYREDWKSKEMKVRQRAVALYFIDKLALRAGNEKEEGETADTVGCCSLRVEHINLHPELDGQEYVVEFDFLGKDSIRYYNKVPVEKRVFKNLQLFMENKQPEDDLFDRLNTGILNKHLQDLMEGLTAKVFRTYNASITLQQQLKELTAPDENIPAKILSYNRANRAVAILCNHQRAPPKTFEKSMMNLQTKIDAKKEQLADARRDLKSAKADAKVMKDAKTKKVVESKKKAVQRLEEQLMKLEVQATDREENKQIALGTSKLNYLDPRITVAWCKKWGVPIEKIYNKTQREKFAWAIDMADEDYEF
The data set can be described thus: Top1-mediated DNA cleavage assay. It counts as biochemical. To be noted: semiquantitative, relative to compounds 1 and 2; Table 2. Here is the method:
Unincorporated [^32P]dGTP was removed using mini Quick […] columns (Roche, Indianapolis, Ind.), and the eluate containing the […] DNA substrate was collected. […] Aliquots of each reaction mixture were subjected to 20% denaturing PAGE. […] The DNA fragments were separated on a denaturing gel. […] All of the target compounds were tested for induction of DNA damage in Top1-mediated DNA cleavage assays, as described above.

The test system of data set [1] is approximately 60 different human cancer cell lines. Kind of data set: NCI screen, mean graph midpoint over all cell lines. It counts as cell-based. To be noted: all human cancer cell lines successfully tested; 48 h; Table 2. Here is the method: (§1) Cells of approximately 60 different human cancer cell lines were incubated for 48 h with five 10-fold dilutions of the tested compounds starting from 100 μM and then treated with sulforhodamine B dye. The ratios of recorded optical densities relative to that of the control were plotted as a function of the common logarithm of the tested compound concentrations. […] The GI50 and the mean graph midpoint (MGM) values of the prepared indenoisoquinolines in selected cell lines are presented in Table I.
(§2) The antiproliferative activity of each compound was determined in the National Cancer Institute (NCI) screen as described above. Cells of approximately 60 different human cancer cell lines were incubated for 48 h with five 10-fold dilutions of the test compounds starting from 100 μM, and then treated with sulforhodamine B dye. The ratios of recorded optical densities relative to those of the control were plotted as a function of the common logarithm of the tested compound concentrations. […] The GI50 and the mean graph midpoint (MGM) values of the prepared (aza)indeno-isoquinolines in selected cell lines are presented in Table 2.

In the next data set the test system is HOP-62. The data set can be described thus: NCI screen antiproliferative activity, lung HOP-62. Here is the method: as §1, §2
For a further data set, the system named is HCT-116. The data set can be described thus: NCI screen antiproliferative activity, colon HCT-116. How it is done: as §1, §2
Another data set has as its system SF-539. The data set can be described thus: NCI screen antiproliferative activity, CNS SF-539. How it is done: as §1, §2
In another data set the test system is UACC-62. Kind of data set: NCI screen antiproliferative activity, melanoma UACC-62. Here is the method: as §1, §2
Another data set deals with OVCAR-3. Kind of data set: NCI screen antiproliferative activity, ovarian OVCAR-3. Here is the method:
as §1, §2

In the next data set the test system is SN12C. Kind of data set: NCI screen antiproliferative activity, renal SN12C. How it is done:
as §1, §2

Another data set relates to DU-145. The data set can be described thus: NCI screen antiproliferative activity, prostate DU-145. How it is done:
as §1, §2

Another data set has as its system MCF7. The data set can be described thus: NCI screen antiproliferative activity, breast MCF7. How it is done:
as §1, §2

The structures appear in SMILES notation. Counter-ions that a name gives are not always drawn. A value given as a limit tells only on which side of the number the result lay.

One may read the melting point as the temperature, or range, at which the solid turns liquid. In turn, `CN(C)CCCn1c2c(c3ccccc3c1=O)C(=O)c1cccnc1-2` (as salt: hydrochloride) [Compound 18, 7-Aza-5,6-dihydro-6-(3-dimethylaminopropyl)-5,11-dioxo-11H-indeno[1,2-c]-isoquinoline Hydrochloride] came in with a melting point of 268 to 270 °C.
Still for that read-out and setting: to `COc1cc2c3c(n(CCCN(C)C)c(=O)c2cc1OC)-c1ncccc1C3=O` (as salt: hydrochloride) [Compound 19, 7-Aza-5,6-dihydro-6-(3-dimethylaminopropyl)-2,3-dimethoxy-5,11-dioxo-11H-indeno[1,2-c]isoquinoline Hydrochloride] belongs 278 to 281 °C (dec.).
The GI50 is the concentration that inhibits growth by half. A low value points to greater sensitivity of the cells. On to `COc1cnc2c(c1)C(=O)c1c-2n(CCCN2CCOCC2)c(=O)c2cc(OC)c(OC)cc12.Cl` [Compound 56, 7-Aza-5,6-dihydro-6-[3-(4-morpholino)propyl]-2,3,9-trimethoxy-5,11-dioxo-11H-indeno[1,2-c]isoquinoline Hydrochloride], for which the “Top1 Cleavage” value on human recombinant Top1 was “++”. Also, the “MGM (mean graph midpoint for growth inhibition)” value in data set [1] was determined as 0.48 µM. Also, the GI50 in the data set on HOP-62 was determined as 240 nM; with HCT-116, 330 nM; in the data set with SF-539 it was 270 nM; in the data set on UACC-62, 220 nM; with OVCAR-3, 310 nM; in the data set with SN12C it was 340 nM. Moreover, the GI50 was found to be 340 nM with DU-145 and 100 nM with MCF7.
Turning to `COc1cnc2c(c1)C(=O)c1c-2n(CCCN(C)C)c(=O)c2ccccc12` [Compound 63, 7-Aza-5,6-dihydro-6-(3-dimethylaminopropyl)-9-methoxy-5,11-dioxo-11H-indeno[1,2-c]isoquinoline], the “Top1 Cleavage” value on human recombinant Top1 is given as “+++”. For the same compound, the “MGM (mean graph midpoint for growth inhibition)” value in data set [1] was determined as 0.40 µM. In addition, the GI50 with HOP-62 was 300 nM; in the data set with HCT-116, 340 nM; in the data set on SF-539, 570 nM; in the data set on UACC-62, 540 nM; with OVCAR-3 it was 940 nM; with SN12C, 260 nM. The figures for the GI50 in the data set on DU-145 and with MCF7 were 300 nM and 210 nM, respectively.
Turning to `COc1cnc2c(c1)C(=O)c1c-2n(CCCN2CCOCC2)c(=O)c2ccccc12` [Compound 64, 7-Aza-5,6-dihydro-6-(3-(4-morpholino)propyl)-9-methoxy-5,11-dioxo-11H-indeno[1,2-c]isoquinoline], on human recombinant Top1, the “Top1 Cleavage” value is reported as “++”. The “MGM (mean graph midpoint for growth inhibition)” value in [1] was 3.0 µM. Also, the GI50 in the data set with HOP-62 came to 4100 nM; with HCT-116, 2500 nM; in the data set on SF-539 it was 3500 nM; with UACC-62 it was 1700 nM; with OVCAR-3, 6300 nM; in the data set with SN12C it was 2600 nM. The GI50 was found to be 3600 nM in the data set with DU-145 and 600 nM in the data set with MCF7.
On to `COc1cnc2c(c1)C(=O)c1c-2n(CCCN(C)C)c(=O)c2cc([N+](=O)[O-])ccc12` [Compound 65, 7-Aza-5,6-dihydro-6-(3-dimethylaminopropyl)-9-methoxy-3-nitro-5,11-dioxo-11H-indeno[1,2-c]isoquinoline], for which, on human recombinant Top1, the “Top1 Cleavage” value is given as “+++”. In [1], the “MGM (mean graph midpoint for growth inhibition)” value was found to be 0.11 µM. Besides, the GI50 in the data set with HOP-62 was 54 nM; in the data set with HCT-116, 74 nM; in the data set with SF-539, 78 nM; in the data set with UACC-62, 52 nM; with OVCAR-3, 140 nM; in the data set with SN12C, 57 nM. Besides, the figures for the GI50 with DU-145 and in the data set on MCF7 were 51 nM and 24 nM, respectively.
Turning to `COc1cnc2c(c1)C(=O)c1c-2n(CCCN2CCOCC2)c(=O)c2cc([N+](=O)[O-])ccc12` [Compound 66, 7-Aza-5,6-dihydro-6-(3-(4-morpholino)propyl)-9-methoxy-3-nitro-5,11-dioxo-11H-indeno[1,2-c]isoquinoline], the “Top1 Cleavage” value at human recombinant Top1 is recorded as “++++ (++++ similar activity as 1 μM 1.)”. The “MGM (mean graph midpoint for growth inhibition)” value in data set [1] amounted to 0.085 µM. Also, the GI50 is 51 nM in the data set on HOP-62; 50 nM in the data set with HCT-116; 35 nM with SF-539; 40 nM with UACC-62; 110 nM in the data set on OVCAR-3; 43 nM in the data set with SN12C. Further, the GI50 with DU-145 worked out at 40 nM; in the data set on MCF7 it was 20 nM.
Turning to `COc1cc2c3c(n(CCCN4CCOCC4)c(=O)c2cc1OC)-c1cnccc1C3=O.O=C(O)C(F)(F)F` [Compound 118, 8-Aza-5,6-dihydro-6-(3-(4-morpholino)propyl)-2,3-dimethoxy-5,11-dioxo-11H-indeno[1,2-c]isoquinoline Trifluoroacetate], the “Top1 Cleavage” value at human recombinant Top1 was “++”. In addition, the “MGM (mean graph midpoint for growth inhibition)” value in [1] worked out at 16 µM. For the same compound, the GI50 in the data set on HOP-62 stood at 6500 nM; in the data set on HCT-116 it was 2500 nM; with SF-539, 40000 nM; with UACC-62, 48000 nM; with OVCAR-3, 24000 nM; in the data set with SN12C, 16000 nM. Further, the GI50 in the data set on DU-145 turned out to be 24000 nM; in the data set on MCF7 it was 4100 nM.
As for `COc1cc2c3c(n(CCCN(C)C)c(=O)c2cc1OC)-c1ccncc1C3=O.O=C(O)C(F)(F)F` [Compound 127, 9-Aza-5,6-dihydro-6-(3-dimethylaminopropyl)-2,3-dimethoxy-5,11-dioxo-11H-indeno[1,2-]isoquinoline Trifluoroacetate], the “Top1 Cleavage” value on human recombinant Top1 was “+ (+ weak activity;)”. Also, the “MGM (mean graph midpoint for growth inhibition)” value in data set [1] was 6.5 µM. In addition, the GI50 in the data set with HOP-62 was 6500 nM; in the data set on HCT-116 it was 620 nM; in the data set on SF-539, 12000 nM; in the data set on UACC-62, greater than 100000 nM; with OVCAR-3, 7400 nM; with SN12C it was 8500 nM. The GI50 stood at 2900 nM in the data set with DU-145 and 3900 nM in the data set with MCF7.
Take `COc1cc2c3c(n(CCCN4CCOCC4)c(=O)c2cc1OC)-c1ccncc1C3=O.O=C(O)C(F)(F)F` [Compound 128, 9-Aza-5,6-dihydro-6-(3-(4-morpholino)propyl)-2,3-dimethoxy-5,11-dioxo-11H-indeno[1,2-c]isoquinoline Trifluoroacetate]: the “Top1 Cleavage” value on human recombinant Top1 is “++”. The “MGM (mean graph midpoint for growth inhibition)” value in [1] is 9.5 µM. The 50% growth inhibitory concentration (GI50) in the data set on HOP-62 is 5000 nM; in the data set on HCT-116 it was 390 nM; in the data set with SF-539, greater than 100000 nM; in the data set with UACC-62 it was 85000 nM; with OVCAR-3 it was 12000 nM; in the data set with SN12C it was 5900 nM. Also, the figures for the GI50 with DU-145 and with MCF7 were 7600 nM and 1900 nM, respectively.
